From the supplement of paper PMC11061612 come the findings set out here.

SMILES strings stand for the structures.

The test system of assay [1] is CAPAN-1 (Pancreatic Carcinoma). In words: Bliss excess, mean over the matrix (fraction); higher = more synergy. In short, it runs like this:
(§1)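 Cell lines grown in DMEM/F12 or RPMI with 10% FBS were plated in 1536-well plates and held 24 hours at 37°C, 5% CO2 before 72 hours of exposure to two-drug dose matrices, with DMSO typically at 0.2%. CellTiter-Glo 2.0 luminescence gave viability, which was converted to inhibition. Vehicle wells were set to 0 and blank wells to 1. Combination Emax is the second-highest inhibition in the matrix, and Bliss excess is the observed combination effect minus the expected EA + EB − EA·EB, where EA and EB are the single-agent effects.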

The next assay concerns COLO-829 (Melanoma). Described as above. In a few lines:
as §1

The test system of assay [2] is HDLM-2 (Hodgkin's Lymphoma). Described as above. In a few lines:
as §1

The subject of assay [3] is K5 (Thyroid Gland Carcinoma). The assay is described as above. In short, it runs like this: as §1
For assay [4], the system named is LU-139 (Small Cell Lung Carcinoma). The description is as above. In a few lines:
as §1

Assay [5] concerns MHH-PREB-1 (B-Cell Non-Hodgkin's Lymphoma). The description is as above. In a few lines: as §1
A further assay deals with NB14 (Neuroblastoma). The description is as above. In short, it runs like this: as §1
Another assay concerns NCI-H2795 (Mesothelioma). The description is as above. In a few lines: as §1
For assay [6], the system named is NCI-H69 (Small Cell Lung Carcinoma). The assay is described as above. In a few lines: as §1
The test system of assay [7] is OC-314 (Ovarian Carcinoma). The assay is described as above. In short, it runs like this:
as §1

The test system of assay [8] is RKO (Colorectal Carcinoma). Described as above. In a few lines:
as §1

In assay [9] the test system is RT-112 (Bladder Carcinoma). The assay is described as above. In a few lines:
as §1

Assay [10] relates to SUP-T1 (T-Lymphoblastic Leukemia). Described as above. In a few lines:
as §1

For assay [11], the system named is SW1271 (Small Cell Lung Carcinoma). The description is as above. In a few lines: as §1
Assay [12] has as its system SW626 (Colorectal Carcinoma). Described as above. In short, it runs like this: as §1
Assay [13] concerns TE-4 (Esophageal Squamous Cell Carcinoma). The assay is described as above. In short, it runs like this:
as §1

Assay [14] concerns CAPAN-1 (Pancreatic Carcinoma). In words: combination Emax (second highest fraction inhibited in the dose matrix, 72 h); higher = more inhibition; extreme values may be limits of the assay. In short, it runs like this:
as §1

Assay [15] concerns KARPAS-231 (B-Cell Non-Hodgkin's Lymphoma). The assay is described as above. In short, it runs like this: as §1
A further assay concerns Mewo (Melanoma). The description is as above. In a few lines:
as §1

Assay [16] relates to SW1116 (Colorectal Carcinoma). The assay is described as above. In a few lines: as §1
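For Bliss excess, mean over the matrix in this document: after 72 h of two-drug dosing.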

On to `CN(CCO)CC[C@H](CSc1ccccc1)Nc1ccc(S(=O)(=O)NC(=O)c2ccc(N3CCC([C@@H](O)c4ccccc4-c4ccc(Cl)cc4)CC3)cc2)cc1S(=O)(=O)C(F)(F)F` [AZD4320] + C1CN(CCC1(C(=O)N[C@@H](CCO)C2=CC=C(C=C2)Cl)N)C3=NC=NC4=C3C=CN4 [Capivasertib] (first compound max 1 µM, 7x7, partner max 3 µM), for which the Bliss excess in [1] is -0.0405; with COLO-829 (Melanoma), -0.0988; in assay [2] it was -0.0284; in [3] it was -0.0525; in assay [4], -0.0328; in [5], -0.029. In addition, the Bliss excess is 0.0472 in the assay with NB14 (Neuroblastoma); -0.0572 in the assay with NCI-H2795 (Mesothelioma); -0.0153 in [6]; -0.0007 in assay [7]; -0.0191 in assay [8]; -0.039 in assay [9]. Moreover, the Bliss excess in assay [10] is -0.0639; in [11], -0.0606; in assay [12] it was -0.0682; in [13], -0.0317. Also, the “combination Emax” value is 0.161 in assay [14], 1 in assay [15], 0.204 in the assay with Mewo (Melanoma) and 0.139 in assay [16].
Turning to `COc1cccc(OCCCN)c1-c1cc(Nc2cnc(C#N)cn2)n[nH]1` [Prexasertib] + C[C@@H]1COCCN1C2=NC(=NC(=C2)C3(CC3)[S@](=N)(=O)C)C4=C5C=CNC5=NC=C4 [AZD6738] (first compound max 1 µM, 7x7, partner max 10 µM), the Bliss excess was -0.0436 in assay [1]; 0.001 with COLO-829 (Melanoma); -0.0669 in [2]; 0.0037 in assay [3]; 0.0339 in assay [4]; -0.0643 in assay [5]. Further, the Bliss excess was 0.0092 in the assay with NB14 (Neuroblastoma); 0.0361 in the assay on NCI-H2795 (Mesothelioma); -0.0356 in assay [6]; 0.0344 in assay [7]; -0.0176 in assay [8]; 0.0275 in assay [9]. In addition, the Bliss excess in assay [10] was -0.0374; in assay [11] it was -0.0337; in [12], 0.007; in [13], 0.0058. In addition, the “combination Emax” value in assay [14] was found to be 0.527; in assay [15] it was 0.979; in the assay on Mewo (Melanoma) it was 0.479; in assay [16], 0.615.
As to `CC1(C)CCC(CN2CCN(c3ccc(C(=O)NS(=O)(=O)c4ccc(NCC5CCOCC5)c([N+](=O)[O-])c4)c(Oc4cnc5[nH]ccc5c4)c3)CC2)=C(c2ccc(Cl)cc2)C1` [Venetoclax] + C1CN(CCC1(C(=O)N[C@@H](CCO)C2=CC=C(C=C2)Cl)N)C3=NC=NC4=C3C=CN4 [Capivasertib] (first compound max 1 µM, 7x7, partner max 3 µM), the Bliss excess in assay [1] is -0.0473; with COLO-829 (Melanoma) it was -0.045; in [2], -0.0166; in assay [3] it was -0.0618; in assay [4] it was -0.0467; in assay [5], -0.0398. Further, the Bliss excess was -0.0461 in the assay on NB14 (Neuroblastoma); -0.111 in the assay on NCI-H2795 (Mesothelioma); 0.0185 in assay [6]; -0.0017 in assay [7]; -0.0173 in [8]; -0.0313 in [9]. The Bliss excess in assay [10] is -0.0641; in assay [11], -0.105; in assay [12], -0.018; in [13], -0.0421. Further, the “combination Emax” value in [14] amounted to 0.184; in assay [15], 0.796; in the assay on Mewo (Melanoma), 0.533; in [16] it was 0.0942.
For the compound `CCc1c2c(nc3ccc(O)cc13)-c1cc3c(c(=O)n1C2)COC(=O)[C@]3(O)CC` [SN-38] + CN(C)CCCOc1ccc(-c2ccc3ncc4c(c3c2)n(C2CCOCC2)c(=O)n4C)cn1 [AZD0156] (first compound max 0.3 µM, 7x7, partner max 1 µM), the Bliss excess in assay [1] is -0.0341; in the assay on COLO-829 (Melanoma), -0.0257; in assay [2] it was -0.0809; in [3] it was -0.0797; in assay [4] it was -0.118; in assay [5], 0.0408. Besides, the Bliss excess in the assay with NB14 (Neuroblastoma) is 0.0191; in the assay on NCI-H2795 (Mesothelioma), 0.0334; in [6] it was -0.0197; in assay [7], 0.0872; in assay [8] it was 0.0263; in assay [9], 0.0988. In addition, the Bliss excess in [10] is -0.0214; in assay [11], 0.0025; in assay [12], -0.0379; in [13], 0.0185. In addition, the “combination Emax” value came out at 0.781 in assay [14], 1 in assay [15], 0.248 in the assay on Mewo (Melanoma) and 0.199 in assay [16].
Regarding `Cc1c2c(nn1C)CSCc1cc(n(C)n1)CSc1cc(c3ccccc3c1)OCCCc1c(C(=O)O)n(C)c3c-2c(Cl)ccc13` [AZD5991] + C=CCn1c(=O)c2cnc(Nc3ccc(N4CCN(C)CC4)cc3)nc2n1-c1cccc(C(C)(C)O)n1 [AZD1775] (first compound max 1 µM, partner max 1 µM), the Bliss excess in [1] is -0.0981; in the assay on COLO-829 (Melanoma) it was -0.0169; in [2] it was 0.0055; in assay [3], -0.0391; in [4], -0.0421; in [5], 0.0023. For the same compound, the Bliss excess with NB14 (Neuroblastoma) was -0.0137; in the assay with NCI-H2795 (Mesothelioma) it was 0.0734; in assay [6], -0.116; in assay [7], 0.0319; in [8], -0.0002; in assay [9] it was 0.0566. For the same compound, the Bliss excess in assay [10] is 0.0028; in [11], -0.0385; in [12] it was 0.0446; in assay [13], 0.0115. For the same compound, the “combination Emax” value in [14] worked out at 0.465; in assay [15], 1; in the assay with Mewo (Melanoma), 0.496; in [16], 0.378.
For the compound `CCN(CCO)CCCOc1ccc2c(Nc3cc(CC(=O)Nc4cccc(F)c4)[nH]n3)ncnc2c1` [AZD2811] + C[C@@H]1COCCN1C2=NC(=NC(=C2)C3(CC3)[S@](=N)(=O)C)C4=C5C=CNC5=NC=C4 [AZD6738] (first compound max 1 µM, 7x7, partner max 10 µM), the Bliss excess in assay [1] was -0.0939; in the assay on COLO-829 (Melanoma), -0.0217; in [2], -0.0357; in [3], -0.086; in [4], -0.108; in [5], -0.0608. Also, the Bliss excess in the assay on NB14 (Neuroblastoma) was -0.0888; in the assay with NCI-H2795 (Mesothelioma) it was -0.0517; in assay [6], -0.0552; in assay [7], 0.0052; in assay [8], -0.0152; in assay [9], -0.0581. The Bliss excess in assay [10] was -0.0291; in assay [11], -0.0829; in assay [12] it was -0.0724; in assay [13], -0.047. The “combination Emax” value in [14] came out at 0.442; in assay [15], 0.825; with Mewo (Melanoma), 0.49; in assay [16], 0.295.
